Experiments:
[1] = system: SNB-19; assay: Cytotoxicity against human SNB-19 cells assessed as growth inhibition at 10 uM after 48 hrs by sulforhodamine B assay; assay type: functional; details: read-out: GI
[2] = system: SN12C; assay: Cytotoxicity against human SN12C cells assessed as growth inhibition at 10 uM after 48 hrs by sulforhodamine B assay; assay type: functional; details: read-out: GI
[3] = system: UACC-62; assay: Cytotoxicity against human UACC-62 cells assessed as growth inhibition at 10 uM after 48 hrs by sulforhodamine B assay; assay type: functional; details: read-out: GI
[4] = system: MCF7; assay: Antiproliferative activity against human MCF7 cells assessed as inhibition of cell growth incubated for 48 hrs by MTT assay; assay type: functional, cell-based; details: MCF7, 48 h
[5] = system: MDA-MB-231; assay: Cytotoxicity against human MDA-MB-231 cells assessed as growth inhibition at 10 uM after 48 hrs by sulforhodamine B assay; assay type: functional; details: read-out: GI
[6] = molecular target: T1, Phosphatidylinositol 4,5-bisphosphate 3-kinase catalytic subunit delta isoform (Homo sapiens, UniProt O00329); assay: Inhibition of PI3Kdelta (unknown origin) using PIP2 as substrate preincubated for 10 mins followed by substrate addition and measured after 1 hr by ELISA
T1 sequence (O00329 whole entry): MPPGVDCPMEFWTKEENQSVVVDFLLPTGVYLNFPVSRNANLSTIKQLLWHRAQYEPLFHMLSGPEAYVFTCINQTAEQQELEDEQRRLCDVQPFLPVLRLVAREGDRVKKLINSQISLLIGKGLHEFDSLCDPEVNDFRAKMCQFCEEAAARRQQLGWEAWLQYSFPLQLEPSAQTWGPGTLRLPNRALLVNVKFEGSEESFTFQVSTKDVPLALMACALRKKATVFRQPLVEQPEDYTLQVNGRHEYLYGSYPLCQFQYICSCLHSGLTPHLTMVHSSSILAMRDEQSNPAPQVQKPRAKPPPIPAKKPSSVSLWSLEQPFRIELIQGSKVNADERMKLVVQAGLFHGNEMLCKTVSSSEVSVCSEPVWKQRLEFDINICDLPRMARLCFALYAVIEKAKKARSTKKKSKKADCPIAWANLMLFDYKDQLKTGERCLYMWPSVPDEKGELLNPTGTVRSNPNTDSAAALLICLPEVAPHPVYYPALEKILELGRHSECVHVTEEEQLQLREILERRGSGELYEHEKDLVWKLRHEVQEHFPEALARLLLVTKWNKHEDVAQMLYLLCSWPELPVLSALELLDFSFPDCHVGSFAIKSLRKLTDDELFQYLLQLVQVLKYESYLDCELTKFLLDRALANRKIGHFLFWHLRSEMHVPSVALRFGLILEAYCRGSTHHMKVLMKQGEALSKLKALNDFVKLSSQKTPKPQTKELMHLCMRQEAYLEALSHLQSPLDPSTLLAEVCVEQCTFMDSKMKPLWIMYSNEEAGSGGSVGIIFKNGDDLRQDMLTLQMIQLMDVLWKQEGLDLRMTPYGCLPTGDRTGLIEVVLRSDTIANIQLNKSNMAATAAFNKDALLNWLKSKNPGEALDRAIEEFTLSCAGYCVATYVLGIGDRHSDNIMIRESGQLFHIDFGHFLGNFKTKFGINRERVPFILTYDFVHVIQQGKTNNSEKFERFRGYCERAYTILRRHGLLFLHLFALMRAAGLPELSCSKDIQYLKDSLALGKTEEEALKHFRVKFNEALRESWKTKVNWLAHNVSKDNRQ

[7] = Cytotoxicity against human Hs 578T cells assessed as growth inhibition at 10 uM after 48 hrs by sulforhodamine B assay; assay type: functional; details: read-out: GI

## COC(=O)/C=C1\S/C(=N\N=C\c2ccc(OCC(F)(F)F)cc2)N(c2ccccc2)C1=O
[1]
  inhibition of growth at 10 µM: 18.2%
[2]
  inhibition of growth at 10 µM: 28.6%
[3]
  inhibition of growth at 10 µM: 18.9%
[4]
  IC50: 13.3 µM
[5]
  inhibition of growth at 10 µM: 21.5%
[6]
  IC50: 121 µM
[7]
  inhibition of growth at 10 µM: 43%

From ChEMBL document CHEMBL5055672, “Design, Synthesis, Biological Evaluation, and Computational Studies of Novel Fluorinated Candidates as PI3K Inhibitors: Targeting Fluorophilic Binding Sites” (J Med Chem, 2021)
